The source of these data is patent US9040530B2, “1,2,4-triazine-6-carboxamide kinase inhibitors” (Portola Pharmaceuticals, Inc., priority 2012, dated 2015).

Molecules are shown by their SMILES.

One may read the IC50 as the concentration at which inhibition is half-maximal.

The target in this assay is T1, full length active recombinant SYK enzyme (Homo sapiens, UniProt P43405).
T1 construct: full length active recombinant SYK enzyme (Millipore, Calif.); purchased Millipore
The experiment in a line: Inhibition of Syk tyrosine phosphorylation activity (LANCE TR-FRET kinase assay). In kind it is biochemical. As to conditions: 1 nM active SYK enzyme, 550 nM SYK-substrate, 100 μM ATP, 1 hour at room temperature.
On to `Cc1ccc(Nc2nc(N[C@H](Cc3cccs3)C(N)=O)nnc2C(N)=O)cc1` [Example 188, (R)-3-(1-amino-1-oxo-3-(thiophen-2-yl)propan-2-ylamino)-5-(p-tolylamino)-1,2,4-triazine-6-carboxamide], for which the IC50 is 10 to 100 nM.
With `NC(=O)c1nnc(N[C@@H]2CCCC(F)(F)[C@@H]2N)nc1Nc1ccc2ncccc2c1` [Example 49, 3-(((1R,2R)-2-amino-3,3-difluorocyclohexyl)amino)-5-(quinolin-6-ylamino)-1,2,4-triazine-6-carboxamide] the figure was 10 to 100 nM; with `NC(=O)c1nnc(N[C@@H]2CCCC(F)(F)[C@@H]2N)nc1Nc1cccc(Cl)c1` [Example 201, 3-(((1R,2R)-2-amino-3,3-difluorocyclohexyl)amino)-5-((3-chlorophenyl)amino)-1,2,4-triazine-6-carboxamide], 10 to 100 nM; with `NC(=O)c1nnc(N[C@@H]2CCCC[C@@H]2N)nc1Nc1nc(-c2ccccc2)no1` [Example 138, 3-(((1R,2S)-2-aminocyclohexyl)amino)-5-((3-phenyl-1,2,4-oxadiazol-5-yl)amino)-1,2,4-triazine-6-carboxamide], more than 1000 nM.
With `Cc1ccc(Nc2nc(N[C@@H](C(N)=O)C(C)C)nnc2C(N)=O)cc1C` [Example 208, (R)-3-((1-amino-3-methyl-1-oxobutan-2-yl)amino)-5-((3,4-dimethylphenyl)amino)-1,2,4-triazine-6-carboxamide], the IC50 fell in the range of 10 to 100 nM.
Then `Cc1ccc(Nc2nc(N[C@H](CC(F)(F)F)C(N)=O)nnc2C(N)=O)cc1` [Example 144, (R)-3-((1-amino-4,4,4-trifluoro-1-oxobutan-2-yl)amino)-5-(p-tolylamino)-1,2,4-triazine-6-carboxamide], with 10 to 100 nM.
Then `CC[C@@H](Nc1nnc(C(N)=O)c(Nc2cnc3cc(F)ccc3c2)n1)C(N)=O` [Example 159, (R)-3-((1-amino-1-oxobutan-2-yl)amino)-5-((7-fluoroquinolin-3-yl)amino)-1,2,4-triazine-6-carboxamide], with 10 to 100 nM; and `NC(=O)c1nnc(N[C@@H]2CCCC[C@@H]2N)nc1Nc1cccc(-c2ncccn2)c1` [Example 1, 3-((1R,2S)-2-aminocyclohexylamino)-5-(3-(pyrimidin-2-yl)phenylamino)-1,2,4-triazine-6-carboxamide], with 1 to 10 nM.
Then `CC(C)C[C@@H](Nc1nnc(C(N)=O)c(Nc2ccc(Cl)cc2)n1)C(N)=O` [Example 248, (R)-3-((1-amino-4-methyl-1-oxopentan-2-yl)amino)-5-((4-chlorophenyl)amino)-1,2,4-triazine-6-carboxamide], with 10 to 100 nM; and `Cc1ccc(Nc2nc(N[C@H](CC(C)C)C(N)=O)nnc2C(N)=O)cc1C` [Example 209, (R)-3-((1-amino-4-methyl-1-oxopentan-2-yl)amino)-5-((3,4-dimethylphenyl)amino)-1,2,4-triazine-6-carboxamide], with 1 to 10 nM; and `NC(=O)c1nnc(N[C@@H]2CCCC[C@@H]2N)nc1Nc1ccc2ncsc2c1` [Example 42, 3-(((1R,2S)-2-aminocyclohexyl)amino)-5-(benzo[d]thiazol-6-ylamino)-1,2,4-triazine-6-carboxamide], with 1 to 10 nM.
`CC[C@@H](Nc1nnc(C(N)=O)c(Nc2ccc3c(c2)CS(=O)(=O)C3)n1)C(N)=O` [Example 220, (R)-3-((1-amino-1-oxobutan-2-yl)amino)-5-((2,2-dioxido-1,3-dihydrobenzo[c]thiophen-5-yl)amino)-1,2,4-triazine-6-carboxamide]: the IC50 was in the range of 10 to 100 nM.
With `NC(=O)c1nnc(N[C@@H]2CCCC(F)(F)[C@@H]2N)nc1Nc1ccc2c(c1)CCCC2` [Example 237, 3-(((1R,2R)-2-amino-3,3-difluorocyclohexyl)amino)-5-((5,6,7,8-tetrahydronaphthalen-2-yl)amino)-1,2,4-triazine-6-carboxamide] the figure was 10 to 100 nM; with `Cn1cc(C#N)c2ccc(Nc3nc(N[C@@H]4CCCC(F)(F)[C@@H]4N)nnc3C(N)=O)cc21` [Example 173, 3-(((1R,2R)-2-amino-3,3-difluorocyclohexyl)amino)-5-((3-cyano-1-methyl-1H-indol-6-yl)amino)-1,2,4-triazine-6-carboxamide], 10 to 100 nM; with `Cc1cc(F)cc(Nc2nc(N[C@@H]3CCCC[C@@H]3N)nnc2C(N)=O)c1` [Example 22, 3-(((1R,2S)-2-aminocyclohexyl)amino)-5-((3-fluoro-5-methylphenyl)amino)-1,2,4-triazine-6-carboxamide], 1 to 10 nM.
Then `NC(=O)c1nnc(N[C@@H]2CCOC[C@@H]2N)nc1Nc1ccc(C(F)(F)F)cc1` [Example 242, 3-(((3R,4R)-3-aminotetrahydro-2H-pyran-4-yl)amino)-5-((4-(trifluoromethyl)phenyl)amino)-1,2,4-triazine-6-carboxamide], with 10 to 100 nM; and `CC[C@@H](Nc1nnc(C(N)=O)c(Nc2cccc3c2ccn3C)n1)C(N)=O` [Example 80, (R)-3-((1-amino-1-oxobutan-2-yl)amino)-5-((1-methyl-1H-indol-4-yl)amino)-1,2,4-triazine-6-carboxamide], with 1 to 10 nM; and `NC(=O)c1nnc(N[C@@H]2CCCC(F)(F)[C@@H]2N)nc1Nc1ccc(C(F)(F)F)cc1` [Example 239, 3-(((1R,2R)-2-amino-3,3-difluorocyclohexyl)amino)-5-((4-(trifluoromethyl)phenyl)amino)-1,2,4-triazine-6-carboxamide], with 10 to 100 nM.
Then `Cc1ccc(Nc2nc(N[C@H](Cc3cccc(F)c3)C(N)=O)nnc2C(N)=O)cc1` [Example 190, (R)-3-(1-amino-3-(3-fluorophenyl)-1-oxopropan-2-ylamino)-5-(p-tolylamino)-1,2,4-triazine-6-carboxamide], with 10 to 100 nM.
`COc1cc(Nc2nc(N[C@@H]3CCCC[C@@H]3N)nnc2C(N)=O)ccn1` [Example 68, 3-(((1R,2S)-2-aminocyclohexyl)amino)-5-((2-methoxypyridin-4-yl)amino)-1,2,4-triazine-6-carboxamide]: the IC50 was 1 to 10 nM.
`NC(=O)c1nnc(N[C@@H]2CCCC[C@@H]2N)nc1Nc1ccc(F)c(F)c1` [Example 18, 3-(((1R,2S)-2-aminocyclohexyl)amino)-5-((3,4-difluorophenyl)amino)-1,2,4-triazine-6-carboxamide]: the IC50 was 10 to 100 nM.
`Cc1cc(Nc2nc(N[C@@H]3CCCC(F)(F)[C@@H]3N)nnc2C(N)=O)ccc1Cl` [Example 218, 3-(((1R,2R)-2-amino-3,3-difluorocyclohexyl)amino)-5-((4-chloro-3-methylphenyl)amino)-1,2,4-triazine-6-carboxamide]: the half-maximal inhibitory concentration (IC50) is 10 to 100 nM.
Take `Cc1cc(Nc2nc(N[C@@H]3CCOC[C@@H]3N)nnc2C(N)=O)ccc1Cl` [Example 224, 3-(((3R,4R)-3-aminotetrahydro-2H-pyran-4-yl)amino)-5-((4-chloro-3-methylphenyl)amino)-1,2,4-triazine-6-carboxamide]: the IC50 fell in the range of 1 to 10 nM.
With `Cc1ccc(Nc2nc(N[C@@H]3CCCC[C@@H]3N)nnc2C(N)=O)cc1F` [Example 19, 3-(((1R,2S)-2-aminocyclohexyl)amino)-5-((3-fluoro-4-methylphenyl)amino)-1,2,4-triazine-6-carboxamide] the figure was 1 to 10 nM.
